Experimental data reported in a melting point compilation (Tetko et al.; mined from patent text by program, amines drawn as free bases though some values may be those of a salt).
Residues, ends and D or L forms follow the SMILES beside them. *: point of attachment. Boc = CC(C)(C)OC(=O)*

Row | Structure (SMILES) | melting point [°C]
1 | COc1cc(Oc2ccc(S(C)(=O)=O)cc2)cc2cc(C3=NCC(CC(N)=O)S3)[nH]c12 (stereo not given) | 169 to 170
2 | O=C1CC(c2cccc(-c3ocnc3C(=O)NCCO)c2)=Nc2ccc(-n3cccc3)cc2N1 | 228 to 230
3 | ClCc1coc(-c2ccc3ccccc3c2)n1 | 116 to 117
4 | CS(=O)(=O)Nc1cccc(-c2ccc(S(=O)(=O)n3ccc(C=CC(=O)NO)c3)cc2)c1 | 137 to 148
5 | O=C(Cc1ccc(OCc2ccccc2)cc1)Nc1c(C(=O)O)oc2cc(-c3ccc(Cl)cc3)ccc12 | 211 to 212
6 | COc1ccc2nc(NC(=O)C(CC3CCCC3)c3ccc(S(=O)(=O)Nc4cccnc4)cc3)sc2n1 (stereo not given) | 125 to 127
7 | COc1ccc2nc(C)cc(Oc3cc(-c4ccc(C(F)(F)F)cc4)ncn3)c2c1 | 165 to 166
8 | O=C(NCCCCC(NC(=O)OCc1ccccc1)C(=O)NC1OC(C(=O)O)CC1O)OCc1ccccc1 (stereo not given) | 86 to 100
9 | O=C(O)CCCc1ccc(S(=O)(=O)Nc2ccccc2)cn1 | 158 to 159
10 | COc1ccc(-c2csc(C=CC(=O)O)c2)cc1C(C)(C)C | 206 to 207
11 | Fc1ccc(Br)nc1Br | 47 to 48
12 | OCCCNCc1cc(C(F)(F)F)cc(C(F)(F)F)c1 | 57 to 58
13 | CCC(=O)NC1CCc2cc(OC)ccc2C1 (stereo not given) | 125
14 | COC(=O)CCn1c(=O)n(CCN2CCN(c3ccccc3OC)CC2)c(=O)c2sccc21 | 151 to 152
15 | COC(=O)c1ccccc1-c1nc2cc(CBr)ccc2o1 | 92 to 95
16 | CN1CCN(c2cccc3c2CC(=O)CC3)CC1 | > 85
17 | CC(C)NC(=O)C(Cl)Cl | 45 to 48
18 | c1ccn(Nc2ncnc3c2ncn3-n2cccc2)c1 | 230 to 232
19 | CC(=O)NC[C@H]1CN(c2cc(F)c(C3CCN(C(=O)COCc4ccccc4)CC3)c(F)c2)C(=O)O1 | 169 to 171
20 | COc1ccnc(CSc2nc3cscc3n2CO)c1 | 125 to 127
21 | CC(=O)NC1CCC(=O)c2ccccc21 (stereo not given) | 128 to 130
22 | Cc1oc(-c2ccccc2)nc1COc1ccc2cc(CCCc3nnn[nH]3)oc2c1 | 139 to 140
23 | O=c1[nH]ccc2c1C(c1cccc([N+](=O)[O-])c1)N=C(c1ccccc1)N2 (stereo not given) | 206 to 207
24 | CC(=O)Nc1cc2c(c(C(=O)O)c1)NCCC2 | 258 to 259
25 | O=C(O)CCC(=O)Cc1ccc2c(c1)Cc1cccnc1O2 | 146 to 147

Row | Structure (SMILES) | melting point [°C]
26 | CC(C)OC(=O)c1nc(Cl)c(-c2c(F)cc(F)cc2F)c(N[C@@H](C)C(F)(F)F)n1 | 146 to 147
27 | CCN(CC)C(=O)c1cccc2c(=O)c(C)c(-c3ccc(OC)cc3)oc12 | 143 to 147
28 | Cc1c(C(=O)Nc2ccc(N3CCN(c4ccc(Cl)cc4)CC3)c(C#N)c2)cnn1-c1ccc(Cl)cc1 | 265
29 | O=C(c1ccccc1)C(Cc1ccccc1)C(=O)c1ccccc1 | 102 to 103
30 | COc1cc([N+](=O)[O-])c(Cl)cc1NC(=O)C1CCNCC1 | 167 to 170
31 | CC(C)(C)OC(=O)NCCNC(=O)c1cccc(Cl)n1 | 114 to 115
32 | CC(C)CC(N)C(=O)NC(CCCCNC(=O)OC(C)(C)C)C(=O)O (stereo not given) (H-Leu-Lys(Boc)-OH; configuration not given here) | 142 to 143
33 | O=C(O)Cc1nc(-c2ccc(F)cc2)oc1-c1cccs1 | 208 to 209
34 | COC(=O)c1ccc(N=Cc2cccc(F)c2)cn1 | 111 to 114
35 | CCCCCS(=O)(=O)NC(=O)/C=C/c1ccc(OCCOC)cc1Oc1ncc(-c2ccccc2)cc1C | 133 to 134
36 | Nc1c(Cl)cc(Cl)c(-c2nsc(C(F)(F)F)c2Cl)c1Br | 77 to 78
37 | Clc1cn2ccnc2c(Br)n1 | 146 to 147
38 | N=C(NC(=O)OCc1ccccc1)NC(=O)OCc1ccccc1 | 149 to 150
39 | O=C(/C=C/c1ccccc1Cl)Nc1ccc(-n2nc(C(F)(F)F)cc2C(F)(F)F)cc1 | 173 to 175
40 | Cc1nc(-c2cc3cc(OCCNC[C@H](O)COc4ccccc4Cl)ccc3o2)no1 | 106 to 108
41 | CNC(=O)c1ccc(NC(=O)Oc2ccccc2)cc1 | 190 to 192
42 | O=C1CCC(c2ccc(C3CCCC3)cc2)=NN1 | 191 to 192
43 | CC(=O)Nc1nc(Cl)c2ncn(COC(COC(C)=O)COC(C)=O)c2n1 | 139 to 140
44 | COC(=O)C1=C2Nc3ccccc3C23CCN(Cc2ccccc2)C3CC1 (stereo not given) | 58 to 60
45 | CC(=O)OC1CCC2(C)C(CCC3C4CCC(C(C)=O)C4(C)CC(=O)C32Cl)C1 (stereo not given) | 151 to 154
46 | Cc1ncc(CN2CCc3ccc(OCc4ccccc4)cc3C2)c(N)n1 | 151 to 153
47 | CNC(=O)CCC(=O)c1ccc(OCC(O)CNC(C)C)cc1 (stereo not given) | 175 to 178
48 | CC(=O)N1CC(CCN2CCC(c3ccccc3)CC2)c2cc3c(cc21)OCO3 (stereo not given) | 101 to 103
49 | C=C=CC12CCC(=O)C=C1C=CC1C3CCC(=O)C3(C)CCC12 (stereo not given) | 152 to 154
50 | Cn1c(C(F)(F)F)ccc(-c2cc(S(C)=O)c(Cl)cc2F)c1=O (stereo not given) | 147 to 148

Row | Structure (SMILES) | melting point [°C]
51 | CCc1sc2ccccc2c1C(=O)O | 136
52 | N#Cc1c(Sc2ccccc2)cccc1[N+](=O)[O-] | 106 to 107
53 | O=C(O)Cc1ccc(CCCSc2ccc(Cl)cc2)cc1 | 94 to 96
54 | O=C(O)COc1c(Cl)cc(Cl)cc1COc1cccc(OCc2ccc3cc(F)ccc3n2)c1 | 189 to 190
55 | NC(=O)c1c(Cl)c(-c2ccccc2)n2c1CN(S(=O)(=O)c1ccc(Cl)cc1)CC2 | 123 to 125
56 | CCN(CC)c1cc2c(cc1C)Nc1c(cc(NC(C)=O)c3ncn(C)c13)O2 | 217 to 218
57 | CS(=O)(=O)c1ccc(-c2cnn(-c3cccc(Cl)c3)c(=O)c2COc2ccc(F)cc2)cc1 | 50 to 80
58 | CCc1ncn(Nc2cccc(C)c2)c1-c1ccccc1 | 158 to 160
59 | c1ccc2c(c1)cc1cnc(Nc3ccc(N4CCOCC4)cc3)nn12 | 205 to 210
60 | CC(C)C(c1ccc(O)cc1)N1CCOCC1 (stereo not given) | 142 to 143
61 | OC(c1ccc(F)cc1)(c1ccc(F)cc1)C1CCNC1 (stereo not given) | 152 to 153
62 | CC(=O)N1N=C(c2ccc([N+](=O)[O-])cc2)c2cc(Cl)c(Cl)cc2CC1C (stereo not given) | 198 to 200
63 | CC(=O)N(C1=C(NC2CC2)C(=O)c2c(cnn2C)C1=O)C1CC1 | 75 to 78
64 | CC(=O)Nc1ccc(-c2nc3c(s2)C(=O)c2ccccc2C3=O)o1 | > 260
65 | N#Cc1ccc(C(=Cc2ccc(C#N)cn2)Cn2cncn2)cc1 | 211
66 | Cc1ccnc2c1C(=O)c1c(C)cc(=O)[nH]c1C2=O | 258 to 261
67 | CCN1C[C@@H](O)[C@H](Sc2ccccc2Cl)C1 (relative stereo) | 90.5 to 92.5
68 | COc1ccc(Oc2ccc(C(C)=C3SCCCS3=O)cc2)cc1 (stereo not given) | 136 to 138
69 | CC(C)c1cccc(C(C)C)c1NC(=O)NCC1CCCc2ccccc21 (stereo not given) | 189 to 190
70 | CCOC(=O)C(=CNc1nonc1C)C(=O)c1cc(F)c(F)c(F)c1F | 88 to 92
71 | Brc1ccc(CN2CCOCC2)cc1 | 68 to 71
72 | COc1ccc(C2=NN(Cc3ccccc3)C(=O)[C@H]3CCCC[C@@H]23)cc1OC (relative stereo) | 86 to 88
73 | COC(=O)c1ccccc1NN=Cc1ccccc1 | 66.5 to 67.5
74 | C1=C(c2c[nH]c3ccccc23)CCN(CC2COc3ccc4[nH]ccc4c3O2)C1 (stereo not given) | 126
75 | O=C1SC(=Cc2cccs2)C(=O)N1CCCCSc1cccc2nccn12 | 116 to 117

Row | Structure (SMILES) | melting point [°C]
76 | COc1ccccc1N1CCN([C@@H]2Cc3c(O)ccc(O)c3C[C@H]2O)CC1 (relative stereo) | 222 to 224
77 | Cc1nc2cc(F)ccc2c(=O)n1C1CCC(=O)NC1=O (stereo not given) | 243 to 245
78 | Nc1c(Br)cc(N=C2NCCN2)cc1Br | 152 to 153
79 | Cc1c(-c2ccccc2)ncc2c(N3CCOC(C)C3)nnc(N3CCOC(C)C3)c12 (stereo not given) | 96 to 99
80 | COc1ccc(-c2cncc(-c3cn(C)c(=O)n3-c3ccc(C(C)(C)C#N)cc3)c2)cc1 | 200
81 | O=C(O)C=C1SC(=Nc2ccc(Cl)c(Cl)c2)N(c2ccc(Cl)c(Cl)c2)C1=O | 221 to 222
82 | O=C(c1cc2ccccc2o1)C12CC3CC(CC(C3)C1)C2 | 129 to 131
83 | CC(C)(C)c1cc(C[PH](=O)O)cc(C(C)(C)C)c1O | 147 to 149
84 | O=C(NC1=NN(c2cccc(Cl)c2)CC1)C(F)(F)F | 143 to 144
85 | CC1CN(c2n[nH]c(-c3ccc(Cl)cc3)c2-c2ccncn2)CCN1C (stereo not given) | 212 to 214
86 | CN(C)CCc1cn(Cc2ccccc2)c2ccc(Br)cc12 | 49 to 50
87 | CCOCC1Cc2cc(S(N)(=O)=O)c(Cl)c(Cl)c2O1 (stereo not given) | 148 to 149
88 | Cc1oc2ccc(NC(=O)c3ccccc3)nc2c1CCN(C)C | 119 to 120
89 | CCCc1cc(N2CCN(c3ccncc3)CC2)ccc1OCCCC(=O)OCC | 65 to 67
90 | CN(C)c1nn(-c2cc(F)c(C#N)cc2F)c(=O)n1N | 154 to 155
91 | COc1nc(C)nc(NC(=O)NS(=O)(=O)c2ccccc2C(=S)C(C)C)n1 | 155 to 158
92 | COC(=O)c1ccc(S(C)(=O)=O)c(-c2ccon2)c1C | 87 to 89
93 | CCOC(=O)C(NC(=O)CC(=O)C=Cc1ccccc1[N+](=O)[O-])C(C)C (stereo not given) | 106 to 107
94 | CCOC(=O)c1ccc(CN2CCN(c3cc(-c4ccccc4)c4ccc(=O)ccn34)CC2)cc1 | 129
95 | O=c1c2ccccc2nc(-c2cc(-c3ccncc3)c(N3CCOCC3)s2)n1-c1ccc(Cl)cc1 | 195 to 197
96 | CCOC(=O)c1cc2cc(OCCCOC)cc(N)c2[nH]1 | 139 to 140
97 | CCOC(=O)c1ccc(-c2ccc(Cl)cc2)[nH]1 | 148
98 | CC(N=Cc1ccc(O)cc1)c1ccc(Br)cc1 (single isomer, unassigned; (-)) | 156 to 161
99 | Cc1nn(-c2ccc(Cl)nn2)c(C)c1[N+](=O)[O-] | 164 to 167
100 | COc1cc(-c2nc3ccc(OCCCN(C)C)cc3n2Cc2ccccc2)cc(OC)c1OC | 112
